Measurements reported in US20120328605A1, “COMPOSITIONS AND USES” (priority 2010, published 2012).
Entries after “also recorded” stand apart in the source; their conditions may differ.

What was measured:
[1] = system: Lineage-CD11b+ monocytes; assay: Monocyte analysis and counting after adjuvant injection in mice; assay type: in vivo, C57BL/6 mice
Protocol: (§1) 24-Hours after injection of the TLR adjuvants, peripheral blood was drawn from C57BL/6 mice via cardiac puncture with lithium-heparin as anticoagulant. Red blood cell lysis was performed twice on pooled blood with Ammonium Chloride-based Buffer (Sigma, Steinheim, Germany) and cells were counted with the EasyCount™ System (Immunicon). […] Cells were finally washed three times and fixed for 15 min. with a 2% paraformaldehyde solution in PBS. Fluorescence minus one (FMO) controls were always included in the assays for fluorescent compensation setting. Samples were acquired on a flow cytometer (BD FACSCanto II) and data analyzed with the FACSDiva software (BD Biosciences). Monocytes were identified by their Side/Forward scatter properties and gated as CD3-/CD45R/B220-/Ly-6G-/NK1.1-(Lineage-)/CD11b+ cells. CD11b+ monocyte frequency was reported as a percentage of the total cells excluding debris.
as §1, with “24 hours” for “24-Hours”, “each immunomodulator,” for “the TLR adjuvants,”, “min” for “min.”, “monocytes” for “monocyte”

[2] = system: CD11b+ monocytes; assay: In vivo uptake assay of Aβ42 after immunization or passive immunotherapy; parameters: species or system C57BL/6 mice; antibody-mediated Aβ peripheral uptake: dose or concentration left out as unconfirmed; settings: FIG. 22
Protocol: Mice: C57BL/6 female mice were purchased from Charles River. […]
[…] At day 22, 5 μg per mouse of fluorescent HiLyte Fluor™ 488-labeled Amyloid β 1-42 (Anaspec, Fremont, Calif.) was injected in the tail vein. Preparation of cells: Peripheral blood was drawn from immunized C57BL/6 mice via cardiac puncture with lithium-heparin as anticoagulant, 2 hours after i.v. injection of the Aβ1-42 HiLyte Fluor™ 488 (Day 22). Plasma of pooled blood was decanted and saved for measurement of antibody titres by ELISA. Red blood cell lysis was performed twice with Ammonium Chloride-based Buffer (Sigma, Steinheim, Germany) and cells were counted with the EasyCount™ System (Immunicon).
FACS analysis: 500,000 cells were aliquoted in a 96-well plate, washed once, incubated for 10 min. on ice in the presence of Rat anti-Mouse CD16/CD32 (clone 2.4G2-BD Fc Block™) and further stained for 30 min. with a combination of the following directly conjugated antibodies at their pre-determined optimal concentration: PE-Hamster anti-Mouse CD3 (clone 145-2C11), Rat anti-Mouse CD45R/B220 (clone RA3-6B2), Rat anti-Mouse Ly-6G (clone 1A8), Mouse anti-Mouse NK1.1 (clone PK136), APC-conjugated Rat anti-Mouse CD11b (clone M1/70), PE-Cy7-conjugated Hamster anti-Mouse CD11c (clone HL3), (all from BD PharMingen). Cells were finally washed twice and fixed for 15 min. with a 2% paraformaldehyde solution in PBS. […]

[3] = single i.m. injection, 24 hrs, FIG. 12

SMILES: CCCCCCCCCCC[C@H](CC(=O)N[C@H]1[C@H](OC[C@H](NC(=O)C[C@@H](CCCCCCCCCCC)OCCCCCCCCCC)C(=O)O)O[C@H](CO)[C@@H](OP(=O)(O)O)[C@@H]1OC(=O)C[C@@H](CCCCCCCCCCC)OCCCCCCCCCC)OCCCCCCCCCC [CRX601]
- circulating monocytes numbers following injection ([1]; i.m. or i.p. routes, doses of b403, FIG. 9): Upregulation of circulating monocytes numbers
- dose enough to trigger an increase of the monocyte count compared to PBS [1, 3]: 1 µg
- dose of maximum response (monocyte count) [1, 3]: 10 µg
- effect on monocyte count at 20 μg dose ([1]; single i.m. injection, FIG. 12): down modulated
- antibody-mediated Aβ uptake, effect of CRX601 when combined with AS03 emulsion ([2]; CRX601 20 ug with AS03): partially quenched
- antibody-mediated Aβ peripheral uptake ([2]; single i.m. injection, 24 hrs, Aβ Fluor i.v., 2 hrs): highest Aβ uptake; also recorded: Dose-response observed
